“And” between values parts separate entries of the source, which are not always exact repeats. Identical values can stand only once.
The compounds below were run against Beta-arrestin-1 (Oryctolagus cuniculus, UniProt Q95223).
Sequence of Beta-arrestin-1 (Q95223 whole entry): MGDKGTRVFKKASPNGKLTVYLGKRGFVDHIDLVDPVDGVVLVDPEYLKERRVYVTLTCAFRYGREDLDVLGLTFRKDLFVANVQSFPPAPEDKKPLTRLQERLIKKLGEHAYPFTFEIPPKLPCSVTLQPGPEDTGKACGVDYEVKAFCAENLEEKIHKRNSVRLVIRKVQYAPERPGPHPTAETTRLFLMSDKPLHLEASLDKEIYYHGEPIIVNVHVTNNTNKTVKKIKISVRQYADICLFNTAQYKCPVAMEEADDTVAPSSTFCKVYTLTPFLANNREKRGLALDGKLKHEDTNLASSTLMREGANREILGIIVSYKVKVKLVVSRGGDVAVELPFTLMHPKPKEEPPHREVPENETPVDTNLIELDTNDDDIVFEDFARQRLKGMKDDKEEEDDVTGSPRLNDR

SMILES	Ki
C[N+](C)(C)CCOC(N)=O [(2-Hydroxyethyl)trimethyl ammonium chloride carbamate]	1.66 µM and > 10 µM
O=C1CCCN1CC#CCN1CCCC1 [1-[4-(2-oxo-pyrrolidin-1-yl)-but-2-ynyl]-pyrrolidinium]	0.214 µM and 1.56 µM
CC(=O)OCC[N+](C)(C)C [2-acetoxyethyl(trimethyl)ammonium;perchlorate]	3.23 µM
